Measured values published in patent publication US20220046923A1, “HERBICIDAL CINNOLINIUM COMPOUNDS” (SYNGENTA CROP PROTECTION AG, priority 2018, published 2022).

Tests used:
Assay in all cases: Post-emergence efficacy, glasshouse spray test
Assay type in all cases: in vivo
Lolium perenne (LOLPE) = conditions: Lolium perenne, post-emergence, 312 h, evaluated after 13 days, read-out: Control of weed species LOLPE after post-emergence application (100=total damage to plant; 0=no damage to plant); for pest or weed control at 1000 g/ha: application rate 1000 g/Ha; for pest or weed control at 500 g/ha: application rate 500 g/Ha
Method: (§1) Seeds of a variety of test species were sown in standard soil in pots. After cultivation for 14 days (post-emergence) under controlled conditions in a glasshouse (at 24/16° C., day/night; 14 hours light; 65% humidity), the plants were sprayed with an aqueous spray solution derived from the dissolution of the technical active ingredient formula (I) in a small amount of acetone and a special solvent and emulsifier mixture referred to as IF50 (11.12% Emulsogen EL360 TM+44.44% N-methylpyrrolidone+44.44% Dowanol DPM glycol ether), to create a 50 g/l solution which was then diluted to required concentration using 0.25% or 1% Empicol ESC70 (Sodium lauryl ether sulphate)+1% ammonium sulphate as diluent. The test plants were then grown in a glasshouse under controlled conditions (at 24/16° C., day/night; 14 hours light; 65% humidity) and watered twice daily. After 13 days the test was evaluated (100=total damage to plant; 0=no damage to plant).
(§2) Ipomoea hederacea (IPOHE), Euphorbia heterophylla (EPHHL), Chenopodium album (CHEAL), Amaranthus palmeri (AMAPA), Lolium perenne (LOLPE), Digitaria sanguinalis (DIGSA), Eleusine indica (ELEIN), Echinochloa crus-galli (ECHCG), Setaria faberi (SETFA)

[1] = tested on: Chenopodium album (CHEAL); conditions: Chenopodium album, post-emergence, 312 h, evaluated after 13 days, read-out: Control of weed species CHEAL after post-emergence application (100=total damage to plant; 0=no damage to plant); for pest or weed control at 1000 g/ha: application rate 1000 g/Ha; for pest or weed control at 500 g/ha: application rate 500 g/Ha
Method: as §1, §2

Eleusine indica (ELEIN) = conditions: Eleusine indica, post-emergence, 312 h, evaluated after 13 days, read-out: Control of weed species ELEIN after post-emergence application (100=total damage to plant; 0=no damage to plant); for pest or weed control at 1000 g/ha: application rate 1000 g/Ha; for pest or weed control at 500 g/ha: application rate 500 g/Ha
Method: as §1, §2

[2] = tested on: Euphorbia heterophylla (EPHHL); conditions: Euphorbia heterophylla, post-emergence, 312 h, evaluated after 13 days, read-out: Control of weed species EPHHL after post-emergence application (100=total damage to plant; 0=no damage to plant); for pest or weed control at 1000 g/ha: application rate 1000 g/Ha; for pest or weed control at 500 g/ha: application rate 500 g/Ha
Method: as §1, §2

[3] = tested on: Echinochloa crus-galli (ECHCG); conditions: Echinochloa crus-galli, post-emergence, 312 h, evaluated after 13 days, read-out: Control of weed species ECHCG after post-emergence application (100=total damage to plant; 0=no damage to plant); for pest or weed control at 1000 g/ha: application rate 1000 g/Ha; for pest or weed control at 500 g/ha: application rate 500 g/Ha
Method: as §1, §2

[4] = tested on: Amaranthus palmeri (AMAPA); conditions: Amaranthus palmeri, post-emergence, 312 h; application rate 1000 g/Ha; evaluated after 13 days; read-out: Control of weed species AMAPA after post-emergence application (100=total damage to plant; 0=no damage to plant)
Method: as §1, §2

[5] = tested on: Ipomoea hederacea (IPOHE); conditions: Ipomoea hederacea, post-emergence, 312 h, evaluated after 13 days, read-out: Control of weed species IPOHE after post-emergence application (100=total damage to plant; 0=no damage to plant); for pest or weed control at 1000 g/ha: application rate 1000 g/Ha; for pest or weed control at 500 g/ha: application rate 500 g/Ha
Method: as §1, §2

[6] = tested on: Digitaria sanguinalis (DIGSA); conditions: Digitaria sanguinalis, post-emergence, 312 h, evaluated after 13 days, read-out: Control of weed species DIGSA after post-emergence application (100=total damage to plant; 0=no damage to plant); for pest or weed control at 1000 g/ha: application rate 1000 g/Ha; for pest or weed control at 500 g/ha: application rate 500 g/Ha
Method: as §1, §2

Setaria faberi (SETFA) = conditions: Setaria faberi, post-emergence, 312 h, evaluated after 13 days, read-out: Control of weed species SETFA after post-emergence application (100=total damage to plant; 0=no damage to plant); for pest or weed control at 1000 g/ha: application rate 1000 g/Ha; for pest or weed control at 500 g/ha: application rate 500 g/Ha
Method: as §1, §2

## O=S(=O)([O-])CC[n+]1ccc2cccc(-c3ccccc3)c2n1 [Compound A52, 2-(8-phenylcinnolin-2-ium-2-yl)ethanesulfonate]
Lolium perenne (LOLPE)
  pest or weed control at 1000 g/ha: 20%
[1]
  pest or weed control at 1000 g/ha: 40%
Eleusine indica (ELEIN)
  pest or weed control at 1000 g/ha: 70%
[2]
  pest or weed control at 1000 g/ha: 100%
[3]
  pest or weed control at 1000 g/ha: 20%
[4]
  pest or weed control at 1000 g/ha: 100%
[5]
  pest or weed control at 1000 g/ha: 30%
[6]
  pest or weed control at 1000 g/ha: 40%
Setaria faberi (SETFA)
  pest or weed control at 1000 g/ha: 30%

## O=C(O)c1cccc(C[n+]2ccc3ccccc3n2)c1 [Compound A91]
Lolium perenne (LOLPE)
  pest or weed control at 1000 g/ha: 10%
[1]
  pest or weed control at 1000 g/ha: 20%
Eleusine indica (ELEIN)
  pest or weed control at 1000 g/ha: 20%
[2]
  pest or weed control at 1000 g/ha: 40%
[3]
  pest or weed control at 1000 g/ha: 40%
[5]
  pest or weed control at 1000 g/ha: 10%
[6]
  pest or weed control at 1000 g/ha: 20%
Setaria faberi (SETFA)
  pest or weed control at 1000 g/ha: 20%

## CN(C)C(=O)c1ccc2n[n+](CCS(=O)(=O)[O-])ccc2c1 [Compound A101]
Lolium perenne (LOLPE)
  pest or weed control at 500 g/ha: 20%
[1]
  pest or weed control at 500 g/ha: 60%
Eleusine indica (ELEIN)
  pest or weed control at 500 g/ha: 80%
[2]
  pest or weed control at 500 g/ha: 70%
[3]
  pest or weed control at 500 g/ha: 60%
[5]
  pest or weed control at 500 g/ha: 40%
[6]
  pest or weed control at 500 g/ha: 70%
Setaria faberi (SETFA)
  pest or weed control at 500 g/ha: 70%

## Cc1c[n+](CCS(=O)(=O)[O-])nc2c(C)cccc12 [Compound A35]
Lolium perenne (LOLPE)
  pest or weed control at 1000 g/ha: 10%
[1]
  pest or weed control at 1000 g/ha: 0%
Eleusine indica (ELEIN)
  pest or weed control at 1000 g/ha: 20%
[2]
  pest or weed control at 1000 g/ha: 30%
[3]
  pest or weed control at 1000 g/ha: 20%
[5]
  pest or weed control at 1000 g/ha: 20%
[6]
  pest or weed control at 1000 g/ha: 30%
Setaria faberi (SETFA)
  pest or weed control at 1000 g/ha: 0%

## CN(C)C(=O)c1ccc2cc[n+](CCS(=O)(=O)[O-])nc2c1 [Compound A106]
Lolium perenne (LOLPE)
  pest or weed control at 500 g/ha: 30%
[1]
  pest or weed control at 500 g/ha: 80%
Eleusine indica (ELEIN)
  pest or weed control at 500 g/ha: 100%
[2]
  pest or weed control at 500 g/ha: 30%
[3]
  pest or weed control at 500 g/ha: 80%
[5]
  pest or weed control at 500 g/ha: 20%
[6]
  pest or weed control at 500 g/ha: 70%
Setaria faberi (SETFA)
  pest or weed control at 500 g/ha: 100%

## CN(C)C(=O)c1cccc2cc[n+](CCS(=O)(=O)[O-])nc12 [Compound A102, 2-[8-(dimethylcarbamoyl)cinnolin-2-ium-2-yl]ethanesulfonate]
Lolium perenne (LOLPE)
  pest or weed control at 500 g/ha: 30%
[1]
  pest or weed control at 500 g/ha: 100%
Eleusine indica (ELEIN)
  pest or weed control at 500 g/ha: 100%
[2]
  pest or weed control at 500 g/ha: 60%
[3]
  pest or weed control at 500 g/ha: 70%
[5]
  pest or weed control at 500 g/ha: 70%
[6]
  pest or weed control at 500 g/ha: 80%
Setaria faberi (SETFA)
  pest or weed control at 500 g/ha: 90%

## CC(=O)Nc1ccc2cc[n+](CCS(=O)(=O)[O-])nc2c1 [Compound A105]
Lolium perenne (LOLPE)
  pest or weed control at 500 g/ha: 20%
[1]
  pest or weed control at 500 g/ha: 70%
Eleusine indica (ELEIN)
  pest or weed control at 500 g/ha: 80%
[2]
  pest or weed control at 500 g/ha: 30%
[3]
  pest or weed control at 500 g/ha: 50%
[5]
  pest or weed control at 500 g/ha: 20%
[6]
  pest or weed control at 500 g/ha: 60%
Setaria faberi (SETFA)
  pest or weed control at 500 g/ha: 70%

## O=S(=O)(O)c1ccc(C[n+]2ccc3ccccc3n2)cc1 [Compound A92]
Lolium perenne (LOLPE)
  pest or weed control at 1000 g/ha: 10%
[1]
  pest or weed control at 1000 g/ha: 0%
Eleusine indica (ELEIN)
  pest or weed control at 1000 g/ha: 30%
[2]
  pest or weed control at 1000 g/ha: 50%
[3]
  pest or weed control at 1000 g/ha: 30%
[5]
  pest or weed control at 1000 g/ha: 40%
[6]
  pest or weed control at 1000 g/ha: 20%
Setaria faberi (SETFA)
  pest or weed control at 1000 g/ha: 10%

## CC(=O)Nc1ccc2n[n+](CCS(=O)(=O)[O-])ccc2c1 [Compound A104]
Lolium perenne (LOLPE); application rate 125 g/Ha
  pest or weed control at 125 g/ha: 20%
[1]; application rate 125 g/Ha
  pest or weed control at 125 g/ha: 30%
Eleusine indica (ELEIN); application rate 125 g/Ha
  pest or weed control at 125 g/ha: 80%
[2]; application rate 125 g/Ha
  pest or weed control at 125 g/ha: 50%
[3]; application rate 125 g/Ha
  pest or weed control at 125 g/ha: 60%
[5]; application rate 125 g/Ha
  pest or weed control at 125 g/ha: 10%
[6]; application rate 125 g/Ha
  pest or weed control at 125 g/ha: 60%
Setaria faberi (SETFA); application rate 125 g/Ha
  pest or weed control at 125 g/ha: 70%

## O=S(=O)([O-])CC[n+]1ccc2cc(Br)ccc2n1 [Compound A34]
Lolium perenne (LOLPE)
  pest or weed control at 1000 g/ha: 10%
[1]
  pest or weed control at 1000 g/ha: 20%
Eleusine indica (ELEIN)
  pest or weed control at 1000 g/ha: 30%
[2]
  pest or weed control at 1000 g/ha: 40%
[3]
  pest or weed control at 1000 g/ha: 40%
[5]
  pest or weed control at 1000 g/ha: 20%
[6]
  pest or weed control at 1000 g/ha: 40%
Setaria faberi (SETFA)
  pest or weed control at 1000 g/ha: 20%

## Cc1cccc2cc[n+](CCS(=O)(=O)[O-])nc12 [Compound A36]
Lolium perenne (LOLPE)
  pest or weed control at 1000 g/ha: 20%
Eleusine indica (ELEIN)
  pest or weed control at 1000 g/ha: 90%
[2]
  pest or weed control at 1000 g/ha: 30%
[3]
  pest or weed control at 1000 g/ha: 70%
[5]
  pest or weed control at 1000 g/ha: 30%
[6]
  pest or weed control at 1000 g/ha: 80%
Setaria faberi (SETFA)
  pest or weed control at 1000 g/ha: 40%

## Cc1ccc2n[n+](CCS(=O)(=O)[O-])cc(C)c2c1 [Compound A33]
Lolium perenne (LOLPE)
  pest or weed control at 1000 g/ha: 0%
[1]
  pest or weed control at 1000 g/ha: 10%
Eleusine indica (ELEIN)
  pest or weed control at 1000 g/ha: 30%
[2]
  pest or weed control at 1000 g/ha: 60%
[3]
  pest or weed control at 1000 g/ha: 50%
[5]
  pest or weed control at 1000 g/ha: 30%
[6]
  pest or weed control at 1000 g/ha: 40%
Setaria faberi (SETFA)
  pest or weed control at 1000 g/ha: 40%

## COC(=O)c1cccc(C[n+]2ccc3ccccc3n2)c1 [Compound A90]
Lolium perenne (LOLPE)
  pest or weed control at 1000 g/ha: 0%
Eleusine indica (ELEIN)
  pest or weed control at 1000 g/ha: 20%
[2]
  pest or weed control at 1000 g/ha: 30%
[3]
  pest or weed control at 1000 g/ha: 10%
[4]
  pest or weed control at 1000 g/ha: 20%
[5]
  pest or weed control at 1000 g/ha: 10%
[6]
  pest or weed control at 1000 g/ha: 10%
Setaria faberi (SETFA)
  pest or weed control at 1000 g/ha: 0%
